The NIST ThermoML archive (doi:10.1016/j.tca.2014.05.034)
± gives the expanded uncertainty stated by the source.

Assay: xn = mol fraction of the nth substance listed
Settings: 100 kPa, Liquid; for mass density: Pycnometric method; for kinematic viscosity: Capillary tube (Ostwald / Ubbelohde) method

**Q.** Which mass density (308.15 K, x1 = 0.085) does the source give for NCCN [ethane-1,2-diamine] + OCCOCCO here?
**A.** 1097.7 ± 0.7 kg/m3

**Q.** And the mass density (308.15 K, x1 = 0.164)?
**A.** 1089.4 ± 0.7 kg/m3

**Q.** What about the mass density (308.15 K, x1 = 0.2376) of the same molecule?
**A.** 1080.3 ± 0.7 kg/m3

**Q.** And the mass density (308.15 K, x1 = 0.3062)?
**A.** 1070.8 ± 0.7 kg/m3

**Q.** And the mass density (308.15 K, x1 = 0.3705)?
**A.** 1060.8 ± 0.7 kg/m3

**Q.** And the mass density (308.15 K, x1 = 0.4308)?
**A.** 1050.1 ± 0.7 kg/m3

**Q.** And the mass density (308.15 K, x1 = 0.4874)?
**A.** 1039.1 ± 0.7 kg/m3

**Q.** And the mass density (308.15 K, x1 = 0.5407)?
**A.** 1027 ± 0.7 kg/m3

**Q.** And the mass density (308.15 K, x1 = 0.5909)?
**A.** 1015 ± 0.7 kg/m3

**Q.** And the mass density (308.15 K, x1 = 0.6384)?
**A.** 1003.1 ± 0.7 kg/m3

**Q.** What about the mass density (308.15 K, x1 = 0.6834) of the same molecule?
**A.** 990 ± 0.7 kg/m3

**Q.** And the mass density (308.15 K, x1 = 0.7259)?
**A.** 978.9 ± 0.7 kg/m3

**Q.** What about the mass density (308.15 K, x1 = 0.7663) of the same molecule?
**A.** 966 ± 0.7 kg/m3

**Q.** And the mass density (308.15 K, x1 = 0.8047)?
**A.** 953.3 ± 0.7 kg/m3

**Q.** What about the mass density (308.15 K, x1 = 0.876) of the same molecule?
**A.** 930.4 ± 0.7 kg/m3

**Q.** What about the mass density (308.15 K, x1 = 0.9408) of the same molecule?
**A.** 908.5 ± 0.7 kg/m3

**Q.** What about the mass density (308.15 K, x1 = 1) of the same molecule?
**A.** 884.9 ± 0.7 kg/m3

**Q.** And the kinematic viscosity (313.15 K, x1 = 0.085)?
**A.** 1.54e-05 ± 1e-07 m2/s

**Q.** And the kinematic viscosity (313.15 K, x1 = 0.164)?
**A.** 1.71e-05 ± 1e-07 m2/s

**Q.** What about the kinematic viscosity (313.15 K, x1 = 0.2376) of the same molecule?
**A.** 1.82e-05 ± 2e-07 m2/s

**Q.** What about the kinematic viscosity (313.15 K, x1 = 0.3062) of the same molecule?
**A.** 1.85e-05 ± 2e-07 m2/s

**Q.** What about the kinematic viscosity (313.15 K, x1 = 0.3705) of the same molecule?
**A.** 1.78e-05 ± 2e-07 m2/s

**Q.** And the kinematic viscosity (313.15 K, x1 = 0.4308)?
**A.** 1.64e-05 ± 1e-07 m2/s

**Q.** What about the kinematic viscosity (313.15 K, x1 = 0.4874) of the same molecule?
**A.** 1.43e-05 ± 1e-07 m2/s

**Q.** What about the kinematic viscosity (313.15 K, x1 = 0.5407) of the same molecule?
**A.** 1.19e-05 ± 1e-07 m2/s

**Q.** And the kinematic viscosity (313.15 K, x1 = 0.5909)?
**A.** 9.68e-06 ± 8e-08 m2/s

**Q.** And the kinematic viscosity (313.15 K, x1 = 0.6384)?
**A.** 7.83e-06 ± 6e-08 m2/s

**Q.** And the kinematic viscosity (313.15 K, x1 = 0.6834)?
**A.** 6.21e-06 ± 5e-08 m2/s

**Q.** What about the kinematic viscosity (313.15 K, x1 = 0.7259) of the same molecule?
**A.** 5.07e-06 ± 4e-08 m2/s

**Q.** And the kinematic viscosity (313.15 K, x1 = 0.7663)?
**A.** 4.05e-06 ± 4e-08 m2/s

**Q.** And the kinematic viscosity (313.15 K, x1 = 0.8047)?
**A.** 3.28e-06 ± 3e-08 m2/s

**Q.** What about the kinematic viscosity (313.15 K, x1 = 0.876) of the same molecule?
**A.** 2.26e-06 ± 2e-08 m2/s

**Q.** What about the kinematic viscosity (313.15 K, x1 = 0.9408) of the same molecule?
**A.** 1.63e-06 ± 2e-08 m2/s

**Q.** What about the kinematic viscosity (313.15 K, x1 = 1) of the same molecule?
**A.** 1.17e-06 ± 1e-08 m2/s

**Q.** What about the mass density (313.15 K, x1 = 0.085) of the same molecule?
**A.** 1094.3 ± 0.7 kg/m3

**Q.** And the mass density (313.15 K, x1 = 0.164)?
**A.** 1085.8 ± 0.7 kg/m3

**Q.** What about the mass density (313.15 K, x1 = 0.2376) of the same molecule?
**A.** 1076.8 ± 0.7 kg/m3

**Q.** And the mass density (313.15 K, x1 = 0.3062)?
**A.** 1067.2 ± 0.7 kg/m3

**Q.** What about the mass density (313.15 K, x1 = 0.3705) of the same molecule?
**A.** 1057.1 ± 0.7 kg/m3

**Q.** What about the mass density (313.15 K, x1 = 0.4308) of the same molecule?
**A.** 1046.4 ± 0.7 kg/m3

**Q.** What about the mass density (313.15 K, x1 = 0.4874) of the same molecule?
**A.** 1035.3 ± 0.7 kg/m3

**Q.** What about the mass density (313.15 K, x1 = 0.5407) of the same molecule?
**A.** 1023.1 ± 0.7 kg/m3

**Q.** And the mass density (313.15 K, x1 = 0.5909)?
**A.** 1011.1 ± 0.7 kg/m3

**Q.** What about the mass density (313.15 K, x1 = 0.6384) of the same molecule?
**A.** 999.3 ± 0.7 kg/m3

**Q.** What about the mass density (313.15 K, x1 = 0.6834) of the same molecule?
**A.** 986.2 ± 0.7 kg/m3

**Q.** And the mass density (313.15 K, x1 = 0.7259)?
**A.** 975 ± 0.7 kg/m3

**Q.** And the mass density (313.15 K, x1 = 0.7663)?
**A.** 962.4 ± 0.7 kg/m3

**Q.** What about the mass density (313.15 K, x1 = 0.8047) of the same molecule?
**A.** 949.5 ± 0.7 kg/m3

**Q.** And the mass density (313.15 K, x1 = 0.876)?
**A.** 926.6 ± 0.7 kg/m3

**Q.** And the mass density (313.15 K, x1 = 0.9408)?
**A.** 904.8 ± 0.7 kg/m3

**Q.** What about the mass density (313.15 K, x1 = 1) of the same molecule?
**A.** 880 ± 0.7 kg/m3

**Q.** What about the kinematic viscosity (318.15 K, x1 = 0.085) of the same molecule?
**A.** 1.3e-05 ± 1e-07 m2/s

**Q.** And the kinematic viscosity (318.15 K, x1 = 0.164)?
**A.** 1.43e-05 ± 1e-07 m2/s

**Q.** What about the kinematic viscosity (318.15 K, x1 = 0.2376) of the same molecule?
**A.** 1.51e-05 ± 1e-07 m2/s

**Q.** What about the kinematic viscosity (318.15 K, x1 = 0.3062) of the same molecule?
**A.** 1.53e-05 ± 1e-07 m2/s

**Q.** And the kinematic viscosity (318.15 K, x1 = 0.3705)?
**A.** 1.47e-05 ± 1e-07 m2/s

**Q.** And the kinematic viscosity (318.15 K, x1 = 0.4308)?
**A.** 1.35e-05 ± 1e-07 m2/s

**Q.** What about the kinematic viscosity (318.15 K, x1 = 0.4874) of the same molecule?
**A.** 1.19e-05 ± 1e-07 m2/s

**Q.** What about the kinematic viscosity (318.15 K, x1 = 0.5407) of the same molecule?
**A.** 1e-05 ± 1e-07 m2/s

**Q.** What about the kinematic viscosity (318.15 K, x1 = 0.5909) of the same molecule?
**A.** 8.16e-06 ± 7e-08 m2/s

**Q.** And the kinematic viscosity (318.15 K, x1 = 0.6384)?
**A.** 6.79e-06 ± 6e-08 m2/s

**Q.** And the kinematic viscosity (318.15 K, x1 = 0.6834)?
**A.** 5.45e-06 ± 5e-08 m2/s

**Q.** What about the kinematic viscosity (318.15 K, x1 = 0.7259) of the same molecule?
**A.** 4.5e-06 ± 4e-08 m2/s

**Q.** What about the kinematic viscosity (318.15 K, x1 = 0.7663) of the same molecule?
**A.** 3.65e-06 ± 3e-08 m2/s

**Q.** And the kinematic viscosity (318.15 K, x1 = 0.8047)?
**A.** 2.96e-06 ± 3e-08 m2/s

**Q.** What about the kinematic viscosity (318.15 K, x1 = 0.876) of the same molecule?
**A.** 2.08e-06 ± 2e-08 m2/s

**Q.** What about the kinematic viscosity (318.15 K, x1 = 0.9408) of the same molecule?
**A.** 1.52e-06 ± 1e-08 m2/s

**Q.** What about the kinematic viscosity (318.15 K, x1 = 1) of the same molecule?
**A.** 1.08e-06 ± 1e-08 m2/s

**Q.** And the mass density (318.15 K, x1 = 0.085)?
**A.** 1091 ± 0.7 kg/m3

**Q.** And the mass density (318.15 K, x1 = 0.164)?
**A.** 1082.5 ± 0.7 kg/m3

**Q.** What about the mass density (318.15 K, x1 = 0.2376) of the same molecule?
**A.** 1073.4 ± 0.7 kg/m3

**Q.** What about the mass density (318.15 K, x1 = 0.3062) of the same molecule?
**A.** 1063.6 ± 0.7 kg/m3

**Q.** What about the mass density (318.15 K, x1 = 0.3705) of the same molecule?
**A.** 1053.4 ± 0.7 kg/m3

**Q.** What about the mass density (318.15 K, x1 = 0.4308) of the same molecule?
**A.** 1042.8 ± 0.7 kg/m3

**Q.** And the mass density (318.15 K, x1 = 0.4874)?
**A.** 1031.7 ± 0.7 kg/m3

**Q.** What about the mass density (318.15 K, x1 = 0.5407) of the same molecule?
**A.** 1019.5 ± 0.7 kg/m3

**Q.** And the mass density (318.15 K, x1 = 0.5909)?
**A.** 1007.4 ± 0.7 kg/m3

**Q.** And the mass density (318.15 K, x1 = 0.6384)?
**A.** 995.4 ± 0.7 kg/m3

**Q.** And the mass density (318.15 K, x1 = 0.6834)?
**A.** 982.5 ± 0.7 kg/m3

**Q.** What about the mass density (318.15 K, x1 = 0.7259) of the same molecule?
**A.** 971.2 ± 0.7 kg/m3

**Q.** And the mass density (318.15 K, x1 = 0.7663)?
**A.** 958.5 ± 0.7 kg/m3

**Q.** What about the mass density (318.15 K, x1 = 0.8047) of the same molecule?
**A.** 945.9 ± 0.7 kg/m3

**Q.** What about the mass density (318.15 K, x1 = 0.876) of the same molecule?
**A.** 922.9 ± 0.7 kg/m3

**Q.** What about the mass density (318.15 K, x1 = 0.9408) of the same molecule?
**A.** 901.2 ± 0.7 kg/m3

**Q.** And the mass density (318.15 K, x1 = 1)?
**A.** 875.2 ± 0.7 kg/m3
